# From patent US20250170218A1, “STABLE PHARMACEUTICAL COMPOSITION OF RECEPTOR AGONIST, AND PREPARATION METHOD AND APPLICATION THEREOF” (JIANGSU HANSOH PHARMACEUTICAL GROUP CO., LTD., priority 2022, published 2025)
# Where two headings read alike, the source gives them in different places. Numbered stars: 1 amine (or outer) side, 2 acyl side, 3 side chain; on linkers, the order of the positions; unused ones are H or OH. Square brackets hold non-standard residues; d marks the D form. Side chains are listed from the residue outwards. Peptide text beside a SMILES is read from it. * marks the point of attachment. ξ: configuration not given here. C20 diacid = O=C(O)CCCCCCCCCCCCCCCCCCC(=O)*; γGlu = O=C(O)[C@H](CCC(=O)[*:2])N[*:1]; AEEA = NCCOCCOCC(=O)O; Aib = CC(C)(N)C(=O)O; ξP = O=C(O)C1CCCN1
# Assays:
# [1] = Pharmacokinetic study in cynomolgus monkeys after single subcutaneous or intravenous injection; assay type: in vivo
# Experimental: The administration doses for 4 groups, i.e., intravenous injection group, low-dose subcutaneous injection group, medium-dose subcutaneous group and high-dose subcutaneous injection group, were 0.1, 0.03, 0.1, and 0.3 mg/kg, respectively, all by single administration.
# [2] = acids, alkalis, oxidation or high temperature
# [3] = Influencing factor test of the bulk drug; assay type: physicochemical; conditions: high temperature or illumination
smiles,measurement,setting,value
CC[C@H](C)[C@H](NC(=O)[C@H](CCCCN)NC(=O)[C@H](CCC(=O)O)NC(=O)[C@H](CC(C)C)NC(=O)[C@H](Cc1ccc(O)cc1)NC(=O)[C@@H](NC(=O)[C@H](CO)NC(=O)[C@H](Cc1ccc(O)cc1)NC(=O)[C@H](CC(=O)O)NC(=O)[C@H](CO)NC(=O)[C@@H](NC(=O)[C@H](Cc1ccccc1)NC(=O)[C@@H](NC(=O)CNC(=O)[C@H](CCC(=O)O)NC(=O)C(C)(C)NC(=O)[C@@H](N)Cc1ccc(O)cc1)[C@@H](C)O)[C@@H](C)O)[C@@H](C)CC)C(=O)N[C@@H](C)C(=O)N[C@@H](C)C(=O)N[C@@H](CCC(N)=O)C(=O)N[C@@H](CCC(=O)O)C(=O)N[C@@H](Cc1ccccc1)C(=O)N[C@H](C(=O)N[C@@H](CC(N)=O)C(=O)N[C@@H](Cc1c[nH]c2ccccc12)C(=O)N[C@@H](CC(C)C)C(=O)N[C@@H](CC(C)C)C(=O)N[C@@H](C)C(=O)NCC(=O)NCC(=O)N1CCCC1C(=O)N[C@@H](CO)C(=O)N[C@@H](CO)C(=O)NCC(=O)N[C@@H](C)C(=O)N1CCC[C@H]1C(=O)N1CCCC1C(=O)N1CCC[C@H]1C(=O)N[C@@H](CO)C(=O)N[C@@H](CCCCNC(=O)COCCOCCNC(=O)COCCOCCNC(=O)CC[C@H](NC(=O)CCCCCCCCCCCCCCCCCCC(=O)O)C(=O)O)C(N)=O)C(C)C (some centres unmarked) [Active ingredient] (H-Y[Aib]EGTFTSDYSIYLEKIAAQEFVNWLLAGG[ξP]SSGAP[ξP]PSK([AEEA-AEEA-γGlu-C20 diacid])-NH2),exposure (AUClast) in animals of different sexes,[1],no statistical difference
same,Vd,"[1]; cynomolgus monkey, in vivo, intravenous, 0.1 mg/kg, single, read-out: apparent volume of distribution Vd",0.066 to 0.0681 L/kg
same,clearance,"[1]; cynomolgus monkey, in vivo, intravenous, 0.1 mg/kg, single, read-out: clearance CL",21.4 to 22.3 mL/day/kg
same,half-life,"[1]; cynomolgus monkey, in vivo, intravenous, 0.1 mg/kg, single, read-out: elimination half-life t1/2",50.7 to 51.5 h
same,half-life,"[1]; cynomolgus monkey, in vivo, sc, single subcutaneous injection, read-out: elimination half-life T1/2",48.9 to 65.4 h
same,Tmax,"[1]; cynomolgus monkey, in vivo, sc, single subcutaneous injection, read-out: time to peak drug concentration Tmax",13.3 to 18 h
same,degradation in stressing test,[2],significant degradations
same,polymer in influencing factor test,[3],polymer growth
